Legend:
[1] = biological target: Dopamine receptor
Description: Compound was evaluated for its ability to inhibit Striatal Dopamine Receptor in rat brain through radioreceptor assay carried out with agonist ligand.

[2] = biological target: D(1A) dopamine receptor (Rattus norvegicus, UniProt P18901); experiment: biochemical
Description: Compound was evaluated for its ability to inhibit dopamine receptor D1 in rat striatum using [3H]SCH-23390

[3] = biological target: D(2) dopamine receptor (Rattus norvegicus, UniProt P61169); experiment: biochemical
Sequence of D(2) dopamine receptor (P61169 whole entry): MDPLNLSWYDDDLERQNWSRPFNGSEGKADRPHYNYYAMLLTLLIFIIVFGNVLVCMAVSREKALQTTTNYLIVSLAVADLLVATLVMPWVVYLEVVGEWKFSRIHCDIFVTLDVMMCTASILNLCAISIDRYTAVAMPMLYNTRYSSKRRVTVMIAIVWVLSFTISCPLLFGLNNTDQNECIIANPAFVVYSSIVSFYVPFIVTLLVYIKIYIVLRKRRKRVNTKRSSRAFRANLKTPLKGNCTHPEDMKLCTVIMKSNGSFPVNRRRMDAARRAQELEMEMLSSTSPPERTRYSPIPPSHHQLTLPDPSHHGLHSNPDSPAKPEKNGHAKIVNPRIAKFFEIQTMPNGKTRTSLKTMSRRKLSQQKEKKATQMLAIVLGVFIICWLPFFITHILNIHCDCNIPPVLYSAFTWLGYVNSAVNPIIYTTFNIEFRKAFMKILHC
Description: Compound was evaluated for its ability to inhibit dopamine receptor D2 in rat striatum using [3H]-spiperone

Sequence of D(1A) dopamine receptor (P18901 whole entry): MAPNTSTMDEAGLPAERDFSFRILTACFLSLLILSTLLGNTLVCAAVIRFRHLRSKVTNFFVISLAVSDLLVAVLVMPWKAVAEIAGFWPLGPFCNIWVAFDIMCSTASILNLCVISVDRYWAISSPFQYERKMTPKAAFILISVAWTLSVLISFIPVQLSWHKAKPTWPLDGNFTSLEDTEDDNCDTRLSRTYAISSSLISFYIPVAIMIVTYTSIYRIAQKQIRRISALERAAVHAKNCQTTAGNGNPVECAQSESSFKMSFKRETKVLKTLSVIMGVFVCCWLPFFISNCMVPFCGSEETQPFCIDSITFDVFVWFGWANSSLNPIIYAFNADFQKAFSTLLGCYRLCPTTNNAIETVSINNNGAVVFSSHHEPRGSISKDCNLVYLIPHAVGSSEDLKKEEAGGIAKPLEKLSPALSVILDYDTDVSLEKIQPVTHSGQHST

Row | SMILES | Ki [1] | Ki [2] | Ki [3]
1 | C=CCN1CCc2cccc3c2[C@H]1Cc1cccc(O)c1-3 | 0.034 nM | 452 nM | 2 nM
2 | C=CCN1CCc2cccc3c2[C@@H]1Cc1cccc(O)c1-3 | 1595 nM | > 10000 nM | 155 nM

From ChEMBL document CHEMBL1125726 (J Med Chem, 1991)
